Source: US9062041B2 (Bayer Intellectual Property GmbH, priority 2011, dated 2015)

How the values were obtained:
Format in all cases: cell-based
[1] = molecular target: EP2 subtype of the human PGE2 receptor (Homo sapiens, UniProt P43116); assay: cAMP antagonism test on the human EP2 receptor (HTRF cAMP detection); conditions: hEP2 receptor, read-out: Antagonism hEP2 IC50
Outline: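 Cells expressing human EP2 preincubated 20 min at RT with compound (0.8 nM–16.5 μM), then stimulated 60 min with PGE2 (3× solution 1.5 nM) in PBS-IBMX. After 20 min lysis, cAMP measured by competitive HTRF with cAMP-d2 and Eu cryptate anti-cAMP antibody (665/620 nm ratio).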

[2] = molecular target: EP4 subtype of the human PGE2 receptor (Homo sapiens, UniProt P35408); assay: cAMP antagonism test on the human EP4 receptor (HTRF cAMP detection); conditions: selectivity towards hEP4, IC50 measured by cAMP antagonism test
Outline: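 Cells expressing human EP4 preincubated 20 min at RT with compound (0.8 nM–16.5 μM), then stimulated with PGE2 (0.3 nM in 3× solution, with IBMX) 60 min at RT. After lysis, cAMP measured by HTRF competition (665/620 nm ratio); antagonism seen as rise in FRET signal.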

human PGD receptor = molecular target: T1, human PGD receptor (Homo sapiens, UniProt Q13258); assay: cAMP antagonism test on the human prostaglandin D receptor (HTRF cAMP detection); conditions: selectivity towards hDP, IC50 measured by cAMP antagonism test
T1 sequence (Q13258 1-359): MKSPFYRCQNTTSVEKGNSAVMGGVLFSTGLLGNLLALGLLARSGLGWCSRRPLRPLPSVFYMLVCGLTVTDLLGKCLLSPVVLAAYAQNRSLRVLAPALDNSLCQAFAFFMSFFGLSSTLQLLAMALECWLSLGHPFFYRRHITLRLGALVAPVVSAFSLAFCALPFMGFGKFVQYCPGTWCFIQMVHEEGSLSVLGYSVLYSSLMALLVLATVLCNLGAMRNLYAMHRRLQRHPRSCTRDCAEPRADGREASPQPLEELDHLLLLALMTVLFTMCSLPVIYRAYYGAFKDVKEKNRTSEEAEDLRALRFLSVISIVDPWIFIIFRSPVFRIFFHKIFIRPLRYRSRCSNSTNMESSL
Outline: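 Cells pre-mixed with cAMP-d2 were preincubated with compound (0.8 nM–16.5 μM) for 20 min at RT, then stimulated with 3× PGD2 solution (6 nM, in PBS-IBMX) for 30 min at RT. After lysis (20 min), HTRF read at 665/620 nm; antagonism seen as rise in FRET ratio.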

Sequence of EP4 subtype of the human PGE2 receptor (P35408 whole entry): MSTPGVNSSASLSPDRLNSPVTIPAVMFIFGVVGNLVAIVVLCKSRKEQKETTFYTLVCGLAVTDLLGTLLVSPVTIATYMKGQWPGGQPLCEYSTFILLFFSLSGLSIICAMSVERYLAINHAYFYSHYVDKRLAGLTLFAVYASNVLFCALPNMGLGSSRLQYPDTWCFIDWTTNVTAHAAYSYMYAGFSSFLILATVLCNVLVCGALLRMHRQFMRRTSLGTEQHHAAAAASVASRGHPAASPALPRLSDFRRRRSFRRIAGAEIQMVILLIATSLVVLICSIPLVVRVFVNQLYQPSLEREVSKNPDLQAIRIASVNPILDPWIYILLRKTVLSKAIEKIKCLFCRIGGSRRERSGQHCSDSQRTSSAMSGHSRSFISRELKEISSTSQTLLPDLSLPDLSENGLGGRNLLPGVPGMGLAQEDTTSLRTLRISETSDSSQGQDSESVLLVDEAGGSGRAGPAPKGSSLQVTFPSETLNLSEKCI
Sequence of EP2 subtype of the human PGE2 receptor (P43116 whole entry): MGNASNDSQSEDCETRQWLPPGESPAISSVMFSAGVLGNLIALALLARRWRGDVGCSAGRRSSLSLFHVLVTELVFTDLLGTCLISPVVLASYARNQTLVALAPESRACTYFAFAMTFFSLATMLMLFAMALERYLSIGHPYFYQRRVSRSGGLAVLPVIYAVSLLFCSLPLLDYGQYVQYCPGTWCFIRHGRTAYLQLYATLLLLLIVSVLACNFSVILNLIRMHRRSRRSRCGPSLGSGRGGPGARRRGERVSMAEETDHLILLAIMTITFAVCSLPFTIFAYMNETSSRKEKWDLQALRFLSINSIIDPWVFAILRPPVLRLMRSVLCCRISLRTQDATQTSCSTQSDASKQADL

SMILES	IC50 [1] [nM]	Selectivity hEP2/hEP4 [2]	Selectivity hEP2/hDP (human PGD receptor)
COCCNC(=O)c1ccc2nn(CC3CCN(C(=O)c4ccc(Oc5cccc(F)c5)cc4)CC3)cc2c1C [Example 361, 2-({1-[4-(3-fluorophenoxy)benzoyl]piperidin-4-yl}methyl)-N-(2-methoxyethyl)-4-methyl-2H-indazol-5-carboxamide]	5.11	xxx (xxx > 100)	xxx (xxx > 100)
COCCNC(=O)c1cc2cn(CC3CN(C(=O)c4ccc(C(F)(F)F)cc4F)C3)nc2cc1C [Example 182, 2-({1-[2-fluoro-4-(trifluoromethyl)benzoyl]azetidin-3-yl}methyl)-N-(2-methoxy-ethyl)-6-methyl-2H-indazol-5-carboxamide]	64.2	xxx (xxx > 100)	xxx (xxx > 100)
Cc1c(C(=O)NCCOC(C)C)ccc2nn(CC3CCN(C(=O)c4ccc(Oc5ccc(F)cc5)cc4)CC3)cc12 [Example 98, 2-({1-[4-(4-fluoro-phenoxy)benzoyl]-piperidin-4-yl}-methyl)-N-(2-isopropoxyethyl)-4-methyl-2H-indazol-5-carboxamide]	7.07	xxx (xxx > 100)	xxx (xxx > 100)
Cc1c(C(=O)NCCN2CCOCC2)ccc2nn(CC3CCN(C(=O)c4ccc(C(F)(F)F)cc4)CC3)cc12 [Example 63, 4-methyl-N-(2-morpholinoethyl)-2-({1-[4-(trifluoromethyl)benzoyl]piperidin-4-yl}methyl)-2H-indazol-5-carboxamide]	1440	xx (xx: 10-100)	xx (xx: 10-100)
Cc1c(C(=O)NCC(C)(C)C)ccc2nn(CC3CCN(C(=O)c4ccc(Oc5ccc(C(F)(F)F)cc5)cc4)CC3)cc12 [Example 405, 4-methyl-N-neopentyl-2-[(1-{4-[4-(trifluoromethyl)phenoxy]benzoyl}piperidin-4-yl)methyl]-2H-indazol-5-carboxamide]	2140	x (x: 1-10)	x (x: 1-10)
Cc1cc2nn(CC3CN(C(=O)c4ccc(OC(F)(F)F)cc4)C3)cc2cc1C(=O)NCC(F)(F)F [Example 195, 6-methyl-N-(2,2,2-trifluoroethyl)-2-({1-[4-(trifluoromethoxy)benzoyl]azetidin-3-yl}methyl)-2H-indazol-5-carboxamide]	227	xx (xx: 10-100)	xx (xx: 10-100)
COCCNC(=O)c1ccc2nn(CC3CCN(C(=O)c4ccc(-c5cncc(F)c5)cc4)CC3)cc2c1C [Example 386, 2-({1-[4-(5-fluoropyridin-3-yl)benzoyl]piperidin-4-yl}methyl)-N-(2-methoxy-ethyl)-4-methyl-2H-indazol-5-carboxamide]	25.7	xxx (xxx > 100)	xxx (xxx > 100)
Cc1c(C(=O)NCCOCC2CC2)ccc2nn(CC3CCN(C(=O)c4ccc(C5CC5)cc4)CC3)cc12 [Example 89, 2-{[1-(4-cyclopropyl-benzoyl)piperidin-4-yl]methyl}-N-[2-(cyclopropylmethoxy)ethyl]-4-methyl-2H-indazol-5-carboxamide]	9.4	xxx (xxx > 100)	xxx (xxx > 100)
COCCNC(=O)c1ccc2nn(CC3CCN(C(=O)c4ccc(-c5cnc(C(F)(F)F)nc5)cc4)CC3)cc2c1C [Example 382, N-(2-methoxyethyl)-4-methyl-2-[(1-{4-[2-(trifluoromethyl)pyrimidin-5-yl]-benzoyl}piperidin-4-yl)methyl]-2H-indazol-5-carboxamide]	19.4	xxx (xxx > 100)	xxx (xxx > 100)
COCCNC(=O)c1ccc2nn(C[C@H]3CCN(C(=O)c4ccc(-c5ccc(F)cc5)cc4)C3)cc2c1C [Example 223, 2-({(S)-1-[(4′-fluorobiphenyl-4-yl)carbonyl]pyrrolidin-3-yl}methyl)-N-(2-methoxyethyl)-4-methyl-2H-indazol-5-carboxamide]	20	xxx (xxx > 100)	xxx (xxx > 100)
CCOCCNC(=O)c1ccc2nn(CC3CCN(C(=O)c4ccc(Cl)cc4)CC3)cc2c1OC [Example 264, 2-{[1-(4-chlorobenzoyl)piperidin-4-yl]methyl}-N-(2-ethoxyethyl)-4-methoxy-2H-indazol-5-carboxamide]	13.7	xxx (xxx > 100)	xxx (xxx > 100)
Cc1c(C(=O)NCC2COCCO2)ccc2nn(CC3CN(C(=O)c4ccc(Cl)cc4)C3)cc12 (single isomer, unassigned) [Example 142, (R or S)-2-{[1-(4-chlorobenzoyl)azetidin-3-yl]methyl}-N-(1,4-dioxan-2-ylmethyl)-4-methyl-2H-indazol-5-carboxamide]	713	xx (xx: 10-100)	xx (xx: 10-100)
COCCNC(=O)c1ccc2nn(CC3CCN(C(=O)c4ccc(Oc5ccc(OC)cc5)cc4)CC3)cc2c1C [Example 18, N-(2-methoxyethyl)-2-({1-[4-(4-methoxy-phenoxy)benzoyl]-piperidin-4-yl}-methyl)-4-methyl-2H-indazol-5-carboxamide]	7.66	xxx (xxx > 100)	xxx (xxx > 100)
COCCNC(=O)c1ccc2nn(CC3CCN(C(=O)c4ccc(S(F)(F)(F)(F)F)cc4)CC3)cc2c1OC [Example 268, 4-methoxy-N-(2-methoxyethyl)-2-({1-[4-(pentafluoro-λ^6-sulphanyl)benzoyl]-piperidin-4-yl}methyl)-2H-indazol-5-carboxamide]	22.9	xxx (xxx > 100)	xxx (xxx > 100)
Cc1c(C(=O)NCC(F)(F)F)ccc2nn(CC3CCN(C(=O)c4cc5cc(F)ccc5n4C)CC3)cc12 [Example 292, 2-({1-[(5-fluoro-1-methyl-1H-indol-2-yl)carbonyl]piperidin-4-yl}methyl)-4-methyl-N-(2,2,2-trifluoroethyl)-2H-indazol-5-carboxamide]	20	xxx (xxx > 100)	xxx (xxx > 100)
COCCNC(=O)c1ccc2nn(CC3CCN(C(=O)c4ccc(Br)c(C)c4)CC3)cc2c1C [Example 332, 2-{[1-(4-bromo-3-methylbenzoyl)piperidin-4-yl]methyl}-N-(2-methoxyethyl)-4-methyl-2H-indazol-5-carboxamide]	5.47	xxx (xxx > 100)	xxx (xxx > 100)
Cc1c(C(=O)NCC(F)(F)F)ccc2nn(CC3CN(C(=O)c4ccc(Oc5ccc(Cl)cc5)cc4)C3)cc12 [Example 165, 2-({1-[4-(4-chlorophenoxy)benzoyl]azetidin-3-yl}methyl)-4-methyl-N-(2,2,2-trifluoroethyl)-2H-indazol-5-carboxamide]	33.4	xxx (xxx > 100)	xxx (xxx > 100)
COc1cccc(-c2ccc(C(=O)N3CCC(Cn4cc5c(C)c(C(=O)NCC(F)(F)F)ccc5n4)CC3)cc2)n1 [Example 323, 2-({1-[4-(6-methoxypyridin-2-yl)benzoyl]piperidin-4-yl}methyl)-4-methyl-N-(2,2,2-trifluoroethyl)-2H-indazol-5-carboxamide]	128	xxx (xxx > 100)	xxx (xxx > 100)
Cc1c(C(=O)NCCN2CCOCC2)ccc2nn(CC3CCN(C(=O)c4ccc(OC(F)(F)F)cc4)CC3)cc12 [Example 59, 4-methyl-N-(2-morpholinoethyl)-2-({1-[4-(trifluoromethoxy)benzoyl]piperidin-4-yl}methyl)-2H-indazol-5-carboxamide]	758	xx (xx: 10-100)	xx (xx: 10-100)
COCCNC(=O)c1ccc2nn(CC3CCN(C(=O)c4ccc(OC(C)(C)C)cc4)CC3)cc2c1C [Example 2, 2-({1-[4-tert-(butoxy)benzoyl]piperidin-4-yl}methyl)-N-(2-methoxyethyl)-4-methyl-2H-indazol-5-carboxamide]	21.7	xxx (xxx > 100)	xxx (xxx > 100)
COCCNC(=O)c1ccc2nn(CC3CCN(C(=O)c4nc5ccccc5o4)CC3)cc2c1C [Example 340, 2-{[1-(benzoxazol-2-ylcarbonyl)piperidin-4-yl]methyl}-N-(2-methoxyethyl)-4-methyl-2H-indazol-5-carboxamide]	19.9	xxx (xxx > 100)	xxx (xxx > 100)
